Experiment [1] deals with T1, Hepatocyte growth factor receptor (Homo sapiens, UniProt P08581). As to the kind of experiment: Inhibition of recombinant GST-fused c-Met expressed in baculovirus infected high five cells by DELFIA.
For experiment [2], the target named is Focal adhesion kinase 1 (Homo sapiens) (UniProt Q05397). Particulars: 0.1 uM.
Description: Inhibition of human FAK at 0.1 uM
Experiment [3] has as its target ALK tyrosine kinase receptor (Homo sapiens) (UniProt Q9UM73). The following applies: 0.1 uM.
Description: Inhibition of human ALK at 0.1 uM
For experiment [4], the target named is Dual specificity mitogen-activated protein kinase kinase 1 (Homo sapiens) (UniProt Q02750). Particulars: 0.1 uM.
Description: Inhibition of human MEK1 at 0.1 uM
Experiment [5] addresses Tyrosine-protein kinase JAK2 (Homo sapiens) (UniProt O60674). Particulars: 0.1 uM.
Description: Inhibition of human JAK2 at 0.1 uM
Experiment [6] concerns the target RAC-alpha serine/threonine-protein kinase (Homo sapiens) (UniProt P31749). Particulars: 0.1 uM.
Description: Inhibition of human PKBalpha at 0.1 uM
For experiment [7], the target named is Serine/threonine-protein kinase Chk1 (Homo sapiens) (UniProt O14757). Particulars: 0.1 uM.
Description: Inhibition of human CHK1 at 0.1 uM
The target in experiment [8] is 3-phosphoinositide-dependent protein kinase 1 (Homo sapiens) (UniProt O15530). Particulars: 0.1 uM.
Description: Inhibition of human PDK1 at 0.1 uM
The target in experiment [9] is Serine/threonine-protein kinase haspin (Homo sapiens) (UniProt Q8TF76). The following applies: 0.1 uM.
Description: Inhibition of human haspin at 0.1 uM
Experiment [10] deals with Serine/threonine-protein kinase pim-1 (Homo sapiens) (UniProt P11309). Particulars: 0.1 uM.
Description: Inhibition of human Pim1 at 0.1 uM
The target of experiment [11] is Ephrin type-B receptor 4 (Homo sapiens) (UniProt P54760). The following applies: 0.1 uM.
Description: Inhibition of human EphB4 at 0.1 uM
The target in experiment [12] is Inhibitor of nuclear factor kappa-B kinase subunit beta (Homo sapiens) (UniProt O14920). The following applies: 0.1 uM.
Description: Inhibition of human IKK-beta at 0.1 uM
Experiment [13] concerns the target Proto-oncogene tyrosine-protein kinase receptor Ret (Homo sapiens) (UniProt P07949). Particulars: 0.1 uM.
Description: Inhibition of human Ret at 0.1 uM
Experiment [14] addresses Glycogen synthase kinase-3 beta (Homo sapiens) (UniProt P49841). Particulars: 0.1 uM.
Description: Inhibition of human GSK3-beta at 0.1 uM
Experiment [15] deals with Angiopoietin-1 receptor (Homo sapiens) (UniProt Q02763). Particulars: 0.1 uM.
Description: Inhibition of human Tie2 at 0.1 uM
Experiment [16] concerns the target T1, Hepatocyte growth factor receptor. Particulars: 0.1 uM.
Description: Inhibition of human c-MET at 0.1 uM
The target in experiment [17] is Macrophage-stimulating protein receptor (Homo sapiens) (UniProt Q04912). The following applies: 0.1 uM.
Description: Inhibition of human RON at 0.1 uM
Experiment [18] deals with Receptor-type tyrosine-protein kinase FLT3 (Homo sapiens) (UniProt P36888). The following applies: 0.1 uM.
Description: Inhibition of human Flt3 at 0.1 uM
For experiment [19], the target named is Mast/stem cell growth factor receptor Kit (Homo sapiens) (UniProt P10721). Particulars: 0.1 uM.
Description: Inhibition of human c-Kit at 0.1 uM
Experiment [20] deals with Phosphatidylinositol 4,5-bisphosphate 3-kinase catalytic subunit beta isoform (Homo sapiens) (UniProt P42338). The following applies: 0.1 uM.
Description: Inhibition of human PI3Kbeta at 0.1 uM
The target of experiment [21] is Vascular endothelial growth factor receptor 1 (Homo sapiens) (UniProt P17948). Kind of experiment: Inhibition of human VEGFR1 at 0.1 uM.
For experiment [22], the target named is Tyrosine-protein kinase JAK3 (Homo sapiens) (UniProt P52333). Particulars: 0.1 uM.
Description: Inhibition of human JAK3 at 0.1 uM
Experiment [23] concerns the target Vascular endothelial growth factor receptor 3 (Homo sapiens) (UniProt P35916). Kind of experiment: Inhibition of human VEGFR3 at 0.1 uM.
Experiment [24] deals with Cytoplasmic tyrosine-protein kinase BMX (Homo sapiens) (UniProt P51813). The following applies: 0.1 uM.
Description: Inhibition of human Bmx at 0.1 uM
In experiment [25] the target is T1, Hepatocyte growth factor receptor. As to the kind of experiment: Inhibition of TPR-fused Met autophosphorylation expressed in HEK293T cells after 150 mins by ELISA. It is filed as cell-based. Particulars: hek-293t. (In general: In an ELISA, binding on a coated surface is turned into a signal by an enzyme label.)
Experiment [26] addresses LIM domain kinase 1 (Homo sapiens) (UniProt P53667). The following applies: 0.1 uM.
Description: Inhibition of human LIMK1 at 0.1 uM
Experiment [27] deals with High affinity nerve growth factor receptor (Homo sapiens) (UniProt P04629). Particulars: 0.1 uM.
Description: Inhibition of human TrkA at 0.1 uM
The target in experiment [28] is RAF proto-oncogene serine/threonine-protein kinase (Homo sapiens) (UniProt P04049). The following applies: 0.1 uM.
Description: Inhibition of human c-Raf at 0.1 uM
Experiment [29] deals with Vascular endothelial growth factor receptor 2 (Homo sapiens, UniProt P35968). As to the kind of experiment: Inhibition of recombinant GST-fused VEGFR2 expressed in baculovirus infected Sf9 cells by DELFIA.
The target of experiment [30] is Angiopoietin-1 receptor (Homo sapiens) (UniProt Q02763). Kind of experiment: Inhibition of human Tie2.
For experiment [31], the target named is T1, Hepatocyte growth factor receptor. Kind of experiment: Inhibition of human c-MET.
Experiment [32] deals with Aurora kinase A (Homo sapiens) (UniProt O14965). Kind of experiment: Inhibition of human Aurora A.
The subject of experiment [33] is HUVEC. Kind of experiment: Antiangiogenic activity in HUVEC assessed as inhibition of tubule branching. Format: functional, cell-based. The following applies: Homo sapiens.
Experiment [34] has as its system HUVEC. As to the kind of experiment: Inhibition of VEGF-induced HUVEC proliferation. It is filed as functional, cell-based. Particulars: Homo sapiens.
The target in experiment [35] is Vascular endothelial growth factor receptor 3 (Homo sapiens) (UniProt P35916). Kind of experiment: Inhibition of human VEGFR3.
The test system of experiment [36] is HUVEC. As to the kind of experiment: Antiangiogenic activity in HUVEC assessed as inhibition of VEGF-induced tubule growth at 100 nM. Format: functional. The following applies: Homo sapiens.
For experiment [37], the target named is Macrophage-stimulating protein receptor (Homo sapiens) (UniProt Q04912). As to the kind of experiment: Inhibition of human RON.
The target in experiment [38] is Receptor-type tyrosine-protein kinase FLT3 (Homo sapiens) (UniProt P36888). As to the kind of experiment: Inhibition of human Flt3.
Experiment [39] concerns HUVEC. Kind of experiment: Antiangiogenic activity in HUVEC assessed as inhibition of VEGF-induced tubule branching at 100 nM. Format: functional. Particulars: Homo sapiens.
In experiment [40] the target is Vascular endothelial growth factor receptor 1 (Homo sapiens) (UniProt P17948). As to the kind of experiment: Inhibition of human VEGFR1.
The subject of experiment [41] is HUVEC. Kind of experiment: Antiangiogenic activity in HUVEC assessed as inhibition of tubule length. Format: functional, cell-based. The following applies: Homo sapiens.

Active and inactive are the calls of the source. The rule behind the calls is not given here.

Consider `CN(C(=O)CC(=O)Nc1ccc(Oc2ccnc3cc(-c4cn(C)cn4)sc23)c(F)c1)c1ccccc1`, for which, in experiment [1], the IC50 worked out at 40 nM.
`COc1ccccc1NC(=O)CC(Nc1ccc(Oc2ccnc3cc(-c4cn(C)cn4)sc23)c(F)c1)C(F)(F)F` (configuration not stated): the inhibition in experiment [2], in experiment [3], in [4], in experiment [5], in experiment [6] and in experiment [7] was below 50% in each case. Further, the inhibition in experiment [8], in experiment [9], in [10], in [11], in [12] and in [13] was below 50% each time. Besides, the inhibition in experiment [14] is below 50%; in experiment [15] it was 50%; in experiment [16] it was 50%; in experiment [17], 50%; in experiment [18], 50%; in [19] it was below 50%. In addition, the inhibition was below 50% in experiment [20]; above 95% in experiment [21]; below 50% in experiment [22]; above 95% in [23]; below 50% in experiment [24]; below 50% in experiment [26]. Also, the inhibition was 50% in experiment [27] and below 50% in [28]. For the same compound, the IC50 amounted to 840 nM in experiment [1], 1800 nM in [25] and 20 nM in experiment [29].
Consider `O=C(CC(Nc1ccc(F)cc1)C(F)(F)F)Nc1ccc(Oc2cc(NC(=O)N3CCCC3)ncn2)c(F)c1` (configuration not stated), for which the IC50 was above 5000 nM in experiment [1] and 1200 nM in experiment [29].
For `COc1cc2ncnc(Oc3ccc(NC(=O)CC(Nc4ccccc4)C(F)(F)F)cc3F)c2cc1OC` (configuration not stated), the IC50 in experiment [1] was above 5000 nM; in experiment [29] it was 860 nM.
Consider `Cn1cnc(-c2cc3nccc(Oc4ccc(NC(CC(=O)Nc5ccc(F)cc5)C(F)(F)F)cc4F)c3s2)c1` (configuration not stated), for which the values for the IC50 in experiment [1], in experiment [25] and in [29] were 90 nM, 370 nM and 20 nM, respectively.
Taken in the same sequence, the figures for `Cn1cnc(-c2cc3nccc(Oc4ccc(NC(CC(=O)Nc5ccc(F)cc5)C(F)(F)F)cc4)c3s2)c1` (configuration not stated) were 180 nM, 880 nM and 20 nM.
For the compound `Cn1cnc(-c2cc3nccc(Oc4ccc(NC(=O)CC(Nc5ccccc5)C(F)(F)F)cc4F)c3s2)c1` (configuration not stated), the IC50 in experiment [29] is 210 nM.
Turning to `Cn1cnc(-c2cc3nccc(Oc4ccc(NC(=O)CC(=O)Nc5ccccc5)cc4F)c3s2)c1`, the IC50 in experiment [1] was 30 nM; in experiment [29], 20 nM.
As to `Cn1cnc(-c2cc3nccc(Oc4ccc(NC(CC(=O)Nc5ccccc5)C(F)(F)F)cc4F)c3s2)c1` (configuration not stated), in [29], the IC50 was 10 nM.
With `COc1cc2nccc(Oc3ccc(NC(=O)CC(Nc4ccccc4)C(F)(F)F)cc3F)c2cc1OC` (configuration not stated), the IC50 in [1] was 680 nM; in [29] it was 360 nM.
With `O=C(CC(Nc1ccc(Oc2cc(NC(=O)N3CCCC3)ncn2)c(F)c1)C(F)(F)F)Nc1ccccc1` (configuration not stated), the inhibition entry in experiment [30], in [31], in experiment [32], in [37] and in experiment [38] was “inactive” in each case. Besides, the IC50 in experiment [1] was above 5000 nM; in the experiment with HUVEC [33], 6 nM; with HUVEC [34] it was 40 nM; in experiment [29] it was 40 nM; in the experiment on HUVEC [41], 10 nM. The inhibition result in [35] and in experiment [40] was “Active” each time. Moreover, the inhibition at 0.1 µM worked out at 97% in the experiment with HUVEC [36] and 95% with HUVEC [39].
For `COc1cc2nccc(Oc3ccc(NC(CC(=O)Nc4ccccc4)C(F)(F)F)cc3F)c2cc1OC` (configuration not stated), the results for the IC50 in experiment [1] and in [29] were 910 nM and 30 nM, respectively.

For orientation: IC50 means the concentration that gives 50% inhibition. As usually defined, the inhibition is the percentage by which the read-out fell short of the control.

Source of the values: ChEMBL document CHEMBL1156855, “Identification of potent and selective VEGFR receptor tyrosine kinase inhibitors having new amide isostere headgroups” (Bioorg Med Chem Lett, 2010).
